Assay results published in patent US4218443A, “Polyether ionophores as antiobesity and hypotriglyceridemic agents” (Hoffmann-La Roche Inc., priority 1979, dated 1980).

Key:
[1] = test system: female Charles River rats; experiment: Chronic 31 day dietary admix experiment; type: in vivo, Charles River rat; conditions: 31 days; for Body Weight Gain / Body Weight final / Fat Absorption / Food Consumption / Food Efficiency / Serum Cholesterol / Serum Free Fatty Acids / Serum Glucose / Serum IRI (immunoreactive insulin) / Serum Triglycerides: sodium salt, mean ± SE
Excerpt: (§1) Faster enzymatic procedure for serum triglycerides, Clinical Chemistry, 21: 1983-1985], cholesterol, [C. C. Allain, L. Poon, S. G. Chan, W. Richmond and P. Fu (1974). Enzymatic determination of total serum cholesterol, Clinical Chemistry, 20: 470-475] and glucose, [R. Konig, H. Dauwalder and R. Richterich (1971). Vergleichende Bestimmungen der Uringlucosekonzentration mit der Polarimetrie und einer enzymatischen Methode (Hexokinase/Glucose-6-Phosphat-Dehydrogenase), Schweiz. Med. Wschr., 101: 860-866], by enzymatic procedures and free fatty acids, [C. Dalton and C. Kowalski (1967). Automated colorimetric determination of free fatty acids in biologic fluids, Clinical Chemistry, 13: 744-751], by a Colorimetric procedure. Serum immunoreactive insulins were determined by radioimmunoassay, [G. F. Bryce, P. R. Johnson, A. C. Sullivan, J. S. Stern (1977). Insulin and glucagon: Plasma levels and pancreatic release in the gentically obese Zucker rat, Hormone and Metabolic Research, 9: 366-370].
(§2) FIG. 2 sets forth body weight gain values of rats matched for initial body weight and pair fed 10% corn oil diet without dinitrodescarboxylasalocid and three groups of pair fed rats receiving 60, 120 and 240 mg/kg of dinitrodescarboxylasalocid as dietary admixes for 31 days respectively. […] Tables 12 and 13 describe the effects of dinitrodescarboxylasalocid (150 mg/kg b.i.d. by oral intubation) in genetically obese and lean Zucker rats for 21 days.

[2] = test system: hepatic fatty acid synthesis; experiment: In vivo hepatic fatty acid synthesis in meal-fed rats; design: species or system Charles River rat; conditions: sodium salt, mean ± SE
Description: In the following examples, female rats (Charles River CD strain, 180-200 g) were housed individually in wire bottom cages in a temperature (22°) and light (12 hr light and 12 hr dark) regulated room. They had free access to Purina Rodent Chow and water.

[3] = test system: intestinal absorption of triglycerides (corn oil); experiment: In vivo absorption of triglycerides (corn oil absorption); conditions: Experiment 2, sodium
[4] = target: rat epididyml lipoprotein lipase (Rattus norvegicus, UniProt Q06000); conditions: read-out: I50 lipoprotein lipase; rat epididyml lipoprotein lipase in vitro
Description: Acetone powders of Zucker rat epididyml adipose tissue were the source of lipoprotein lipase and were prepared by the method of Garfinkel and Schotz, [A. S. Garfinkel and M. C. […] The adipose tissue was removed quickly and immediately homogenized in acetone (15 ml per gram of adipose tissue) in a Waring Blender at high speed for one minute, then filtered quickly through a coarse fritted glass funnel. The extract was washed twice with acetone (3 ml per gram of adipose tissue), then washed two more times with anhydrous ethyl ether (3 ml per gram adipose tissue). The powder was dried under vacuum for one hour, weighed and stored desiccated at -70° C. Approximately 0.013 g acetone powder was obtained per gram of epididyml adipose tissue. The lipoprotein lipase was extracted from the acetone powder into 0.05 M NH4 OH-NH4 Cl buffer, pH 8.6. The extracts were prepared by homogenizing the acetone powder in buffer in a TenBroeck glass tissue grinder in ice. The homogenate was centrifuged at 2,000×g for 20 min to remove insoluble material.
Ionophores were added to the above assays as solutions in either water or DMSO.

[5] = test system: rats in the five day two hour meal model; experiment: Five day two hour meal model; type: in vivo, rat; conditions: sodium salt, mean ± SE
Description: A five day two hour meal model was developed to evaluate the effects of lipase inhibitors in vivo. [^14 C]-triolein and [^3 H]cholesterol were included in the 10% corn oil meal on days one and five. Test compound was administered as a dietary admix. Compound was first mixed into the fat component of the diet before the dry components were added. Food consumption and body weight gain were determined. Feces were collected from day two to day four. Rats were killed on day five and the small intestine and contents were removed for analysis.

[6] = test system: obese and lean female Zucker rats; experiment: Chronic 21 day experiment in obese and lean Zucker rats; type: in vivo, Zucker rat; conditions: 150 mg/kg b.i.d. oral, 21 days, sodium salt, mean ± SE
Excerpt: Ad libitum fed lean and genetically obese Zucker rats (140 days old) were used in one chronic study.
as §1, §2

Chain of rat epididyml lipoprotein lipase (Q06000 28-474): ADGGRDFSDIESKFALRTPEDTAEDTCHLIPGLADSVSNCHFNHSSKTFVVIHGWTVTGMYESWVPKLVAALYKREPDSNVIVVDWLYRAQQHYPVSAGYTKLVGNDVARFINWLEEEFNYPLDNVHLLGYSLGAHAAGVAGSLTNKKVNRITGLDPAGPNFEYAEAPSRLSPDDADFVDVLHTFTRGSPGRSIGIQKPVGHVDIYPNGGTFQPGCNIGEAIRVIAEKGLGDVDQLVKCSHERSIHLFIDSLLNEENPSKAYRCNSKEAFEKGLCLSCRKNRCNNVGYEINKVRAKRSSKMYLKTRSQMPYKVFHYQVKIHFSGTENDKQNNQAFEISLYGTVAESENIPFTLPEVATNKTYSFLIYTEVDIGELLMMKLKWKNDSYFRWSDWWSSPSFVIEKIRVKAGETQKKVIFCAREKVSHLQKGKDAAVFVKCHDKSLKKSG

CC[C@@H](C(=O)[C@@H](C)[C@@H](O)[C@H](C)CCc1c([N+](=O)[O-])cc(C)c(O)c1[N+](=O)[O-])[C@H]1O[C@](CC)([C@H]2CC[C@](O)(CC)[C@H](C)O2)C[C@@H]1C [Dinitrodescarboxylasalocid]
Body Weight Gain ([1]; 60 mg/kg dietary admix): 64 ± 6 g
Body Weight final ([1]; 60 mg/kg dietary admix): 255 ± 8 g
Fat Absorption ([1]; 60 mg/kg dietary admix): 95.6 ± 0.6%
Food Consumption ([1]; 60 mg/kg dietary admix): 17.4 ± 0.6 g/day
Food Efficiency ([1]; 60 mg/kg dietary admix): 0.115 ± 0.010 g gained/g consumed
Serum Cholesterol ([1]; 60 mg/kg): 106 ± 6 mg/100 ml
Serum Free Fatty Acids ([1]; 60 mg/kg): 469 ± 46 μeq/l
Serum Glucose ([1]; 60 mg/kg): 173 ± 5 mg/100 ml
Serum IRI (immunoreactive insulin) ([1]; 60 mg/kg): 1.8 ± 0.2 ng/mL
Serum Triglycerides ([1]; 60 mg/kg): 73 ± 3 mg/100 ml
Body Weight Gain ([1]; 120 mg/kg dietary admix): 66 ± 8 g
Body Weight final ([1]; 120 mg/kg dietary admix): 256 ± 10 g
Fat Absorption ([1]; 120 mg/kg dietary admix): 95.8 ± 0.6%
Food Consumption ([1]; 120 mg/kg dietary admix): 19.0 ± 0.5 g/day
Food Efficiency ([1]; 120 mg/kg dietary admix): 0.109 ± 0.014 g gained/g consumed
Serum Cholesterol ([1]; 120 mg/kg): 88 ± 6 mg/100 ml
Serum Free Fatty Acids ([1]; 120 mg/kg): 425 ± 45 μeq/l
Serum Glucose ([1]; 120 mg/kg): 164 ± 5 mg/100 ml
Serum IRI (immunoreactive insulin) ([1]; 120 mg/kg): 2.0 ± 0.2 ng/mL
Serum Triglycerides ([1]; 120 mg/kg): 64 ± 5 mg/100 ml
Body Weight Gain ([1]; 240 mg/kg dietary admix): 51 ± 3 g
Body Weight final ([1]; 240 mg/kg dietary admix): 246 ± 4 g
Fat Absorption ([1]; 240 mg/kg dietary admix): 88.1 ± 1.7%
Food Consumption ([1]; 240 mg/kg dietary admix): 17.6 ± 0.5 g/day
Food Efficiency ([1]; 240 mg/kg dietary admix): 0.083 ± 0.011 g gained/g consumed
Serum Cholesterol ([1]; 240 mg/kg): 155 ± 9 mg/100 ml
Serum Free Fatty Acids ([1]; 240 mg/kg): 423 ± 61 μeq/l
Serum Glucose ([1]; 240 mg/kg): 155 ± 8 mg/100 ml
Serum IRI (immunoreactive insulin) ([1]; 240 mg/kg): 1.7 ± 0.2 ng/mL
Serum Triglycerides ([1]; 240 mg/kg): 51 ± 4 mg/100 ml
Body weight gain compared to controls and the respective pair-fed groups (FIG. 2) ([1]; 60, 120 and 240 mg/kg dietary admix): reduced significantly only at the 240 mg/kg dose
Fatty Acid Synthesis 3H2O converted ([2]; 60 mg/kg i.p.): 12.5 ± 2.1 μmoles per 1 g liver in 30 min
Fatty Acid Synthesis [14C]alanine converted ([2]; 60 mg/kg i.p.): 208 ± 42 nmoles per 1 g liver in 30 min
Fatty Acid Synthesis 3H2O converted ([2]; Experiment 1, 240 mg/kg p.o.): 17.1 ± 3.5 μmoles per 1 g liver per 30 mi
Fatty Acid Synthesis [14C]alanine converted ([2]; Experiment 1, 240 mg/kg p.o.): 250 ± 87 nmoles per 1 g liver per 30 mi
Fatty Acid Synthesis 3H2O converted ([2]; Experiment 2, 60 mg/kg p.o.): 17.0 ± 3.1 μmoles per 1 g liver per 30 mi
Fatty Acid Synthesis [14C]alanine converted ([2]; Experiment 2, 60 mg/kg p.o.): 711 ± 130 nmoles per 1 g liver per 30 mi
Fatty Acid Synthesis 3H2O converted ([2]; Experiment 2, 120 mg/kg p.o.): 18.7 ± 2.1 μmoles per 1 g liver per 30 mi
Fatty Acid Synthesis [14C]alanine converted ([2]; Experiment 2, 120 mg/kg p.o.): 696 ± 80 nmoles per 1 g liver per 30 mi
Fatty Acid Synthesis 3H2O converted ([2]; Experiment 2, 240 mg/kg p.o.): 12.6 ± 1.4 μmoles per 1 g liver per 30 mi
Fatty Acid Synthesis [14C]alanine converted ([2]; Experiment 2, 240 mg/kg p.o.): 510 ± 64 nmoles per 1 g liver per 30 mi
Area under curve (corn oil absorption) ([3]; 56 mg/kg p.o.): 1213
Area under curve, % of control ([3]; 56 mg/kg p.o.): 86 % of control
Area under curve (corn oil absorption) ([3]; 120 mg/kg p.o.): 1072
Area under curve, % of control ([3]; 120 mg/kg p.o.): 76 % of control
Area under curve (corn oil absorption) ([3]; 240 mg/kg p.o.): 564
Area under curve, % of control ([3]; 240 mg/kg p.o.): 40 % of control
IC50 [4]: 270 µM
3H-Cholesterol in Feces ([5]; 120 mg/kg dietary admix): 28.6 ± 3.9 % of ingested
14C in Feces ([5]; 120 mg/kg dietary admix): 2.4 ± 0.7 % of ingested
Body weight gain (BWG) ([5]; 120 mg/kg dietary admix): -1 ± 3 g
Fat Absorption ([5]; 120 mg/kg dietary admix): 95.6 ± 0.5%
Intestinal Cholsterol Esters ([5]; 120 mg/kg): 7.7 ± 1.2 % of 14C-lipid
Intestinal Contents 3H-cholesterol ([5]; 120 mg/kg): 1.7 ± 0.2 % ingested
Intestinal Contents 14C-lipid ([5]; 120 mg/kg): 0.75 ± 0.10 % ingested
Intestinal Free Fatty Acids ([5]; 120 mg/kg): 61.9 ± 1.3 % of 14C-lipid
Intestinal Mono- and Diglyceride ([5]; 120 mg/kg): 15.3 ± 1.3 % of 14C-lipid
Intestinal Triglyceride ([5]; 120 mg/kg): 9.1 ± 0.8 % of 14C-lipid
3H-Cholesterol in Feces ([5]; 240 mg/kg dietary admix): 34.1 ± 2.6 % of ingested
14C in Feces ([5]; 240 mg/kg dietary admix): 4.4 ± 0.8 % of ingested
Body weight gain (BWG) ([5]; 240 mg/kg dietary admix): -3 ± 2 g
Fat Absorption ([5]; 240 mg/kg dietary admix): 92.8 ± 0.7%
Food Consumption ([5]; 240 mg/kg dietary admix): 7.2 ± 0.5 g/day
Intestinal Cholsterol Esters ([5]; 240 mg/kg): 7.1 ± 0.8 % of 14C-lipid
Intestinal Contents 3H-cholesterol ([5]; 240 mg/kg): 1.2 ± 0.2 % ingested
Intestinal Contents 14C-lipid ([5]; 240 mg/kg): 0.66 ± 0.13 % ingested
Intestinal Free Fatty Acids ([5]; 240 mg/kg): 59.6 ± 2.6 % of 14C-lipid
Intestinal Mono- and Diglyceride ([5]; 240 mg/kg): 15.9 ± 0.9 % of 14C-lipid
Intestinal Triglyceride ([5]; 240 mg/kg): 10.3 ± 0.7 % of 14C-lipid
Body Weight Gain ([6]; Fa/- (lean)): 20 ± 4 g
Fat Absorption ([6]; Fa/- (lean)): 90.1 ± 0.9%
Fecal Weight ([6]; Fa/- (lean)): 1.6 ± 0.1 g
Final Body Weight ([6]; Fa/- (lean)): 202 ± 5 g
Food Consumption ([6]; Fa/- (lean)): 16.8 ± 0.8 g/day
Serum Cholesterol ([6]; Fa/- (lean)): 84 ± 7 mg/100 ml
Serum Free Fatty Acids ([6]; Fa/- (lean)): 519 ± 58 μeq/l
Serum Glucose ([6]; Fa/- (lean)): 154 ± 6 mg/100 ml
Serum IRI (immunoreactive insulin) ([6]; Fa/- (lean)): 0.5 ± 0.1 ng/mL
Serum Triglycerides ([6]; Fa/- (lean)): 71 ± 5 mg/100 ml
Body Weight Gain ([6]; fa/fa (obese)): 61 ± 6 g
Fat Absorption ([6]; fa/fa (obese)): 93.0 ± 1.1%
Fecal Weight ([6]; fa/fa (obese)): 2.1 ± 0.1 g
Final Body Weight ([6]; fa/fa (obese)): 352 ± 12 g
Food Consumption ([6]; fa/fa (obese)): 19.5 ± 0.9 g/day
Serum Cholesterol ([6]; fa/fa (obese)): 168 ± 6 mg/100 ml
Serum Free Fatty Acids ([6]; fa/fa (obese)): 668 ± 59 μeq/l
Serum Glucose ([6]; fa/fa (obese)): 201 ± 12 mg/100 ml
Serum IRI (immunoreactive insulin) ([6]; fa/fa (obese)): 8.3 ± 0.6 ng/mL
Serum Triglycerides ([6]; fa/fa (obese)): 178 ± 19 mg/100 ml
